How the values were obtained:
[1] = target: T1, 5-hydroxytryptamine receptor 2A (Homo sapiens, UniProt P28223); assay: Activation of human 5-HT2A receptor assessed as maximal activation relative to control; details: filed as activator
[2] = target: T1, 5-hydroxytryptamine receptor 2A; assay: Activation of human 5-HT2A receptor
[3] = target: T1, 5-hydroxytryptamine receptor 2A; assay: Displacement of [125I]DOI from 5-HT2A receptor (unknown origin) assessed as inhibition constant

T1 sequence (P28223 whole entry): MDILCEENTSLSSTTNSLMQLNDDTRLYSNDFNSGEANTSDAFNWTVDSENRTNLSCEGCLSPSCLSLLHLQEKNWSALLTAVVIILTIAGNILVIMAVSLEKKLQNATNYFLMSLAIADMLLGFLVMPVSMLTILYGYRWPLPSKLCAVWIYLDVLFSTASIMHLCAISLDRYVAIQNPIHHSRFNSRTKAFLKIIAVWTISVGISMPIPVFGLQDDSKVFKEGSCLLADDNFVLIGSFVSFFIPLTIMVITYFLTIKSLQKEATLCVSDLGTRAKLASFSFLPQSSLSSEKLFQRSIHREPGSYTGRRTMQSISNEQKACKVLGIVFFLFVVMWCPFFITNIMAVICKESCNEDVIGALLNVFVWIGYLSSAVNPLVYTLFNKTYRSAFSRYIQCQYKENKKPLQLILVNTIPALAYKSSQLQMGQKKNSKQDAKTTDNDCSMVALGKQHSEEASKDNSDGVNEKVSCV

SMILES | max activation [1] | EC50 [2] | Ki [3]
CN1C[C@H](C(=O)N(CC(F)F)CC(F)F)C=C2c3cccc4[nH]cc(c34)C[C@H]21 | 82% | 900 pM | 330 pM
CCN(CC(F)(F)F)C(=O)[C@@H]1C=C2c3cccc4[nH]cc(c34)C[C@H]2N(C)C1 | 82% | 3200 pM | 450 pM
CCN(CCF)C(=O)[C@@H]1C=C2c3cccc4[nH]cc(c34)C[C@H]2N(C)C1 | 69% | 430 pM | 340 pM
CN1C[C@H](C(=O)N(CCF)CC(F)F)C=C2c3cccc4[nH]cc(c34)C[C@H]21 | 78% | 250 pM | 430 pM
CCN(CC(F)F)C(=O)[C@@H]1C=C2c3cccc4[nH]cc(c34)C[C@H]2N(C)C1 | 77% | 760 pM | 210 pM
CN(CC(F)(F)F)C(=O)[C@@H]1C=C2c3cccc4[nH]cc(c34)C[C@H]2N(C)C1 | 72% | 9100 pM | 260 pM
C#CCN(C)C(=O)[C@@H]1C=C2c3cccc4[nH]cc(c34)C[C@H]2N(C)C1 | 70% | 980 pM | 540 pM
C#CCN(CC)C(=O)[C@@H]1C=C2c3cccc4[nH]cc(c34)C[C@H]2N(C)C1 | 68% | 830 pM | 360 pM
CCN(CC#N)C(=O)[C@@H]1C=C2c3cccc4[nH]cc(c34)C[C@H]2N(C)C1 | 68% | 880 pM | 190 pM

Reference: ChEMBL document CHEMBL5614448, “Current Trends in Psychedelic Science: Integrating Modified Lysergic Acid Derivatives and Psilocybin in Modern Medicine” (ACS Med Chem Lett, 2024)
